In ChEMBL document CHEMBL1275568, “Comparison of disk diffusion and agar dilution methods for erythromycin, ciprofloxacin, and tetracycline susceptibility testing of Campylobacter coli and for tetracycline susceptibility testing of Campylobacter jejuni subsp. jejuni” (2008):

Key:
Type in all cases: functional
Campylobacter coli [1] = assay: Antimicrobial activity against Campylobacter coli by disk diffusion method
Campylobacter jejuni = assay: Antimicrobial activity against Campylobacter jejuni by disk diffusion method
Campylobacter coli [2] = assay: Antimicrobial activity against Campylobacter coli assessed as resistant rate

SMILES | diameter of the inhibition zone (DIZ) (Campylobacter coli [1]) | diameter of the inhibition zone (DIZ) (Campylobacter jejuni) | Activity (Campylobacter coli [2]) [%]
CC[C@H]1OC(=O)[C@H](C)[C@@H](O[C@H]2C[C@@](C)(OC)[C@@H](O)[C@H](C)O2)[C@H](C)[C@@H](O[C@@H]2O[C@H](C)C[C@H](N(C)C)[C@H]2O)[C@](C)(O)C[C@@H](C)C(=O)[C@H](C)[C@@H](O)[C@]1(C)O [ERYTHROMYCIN] | >=15 mm | – | –
CN(C)[C@@H]1C(O)=C(C(N)=O)C(=O)[C@@]2(O)C(O)=C3C(=O)c4c(O)cccc4[C@@](C)(O)[C@H]3C[C@@H]12 [TETRACYCLINE] | >=26 mm | <=20 mm | 48
O=C(O)c1cn(C2CC2)c2cc(N3CCNCC3)c(F)cc2c1=O [CIPROFLOXACIN] | >=20 mm | – | –
